This data set can be described thus: intramolecular Trp triplet quenching by Cys (photoinduced electron transfer, contact formation) in full-length measles virus NTAIL single C-W variants; nanosecond transient absorption (289 nm pump, 458 nm probe); tau_CW from 1/tau_CW = 1/tau_obs - 1/tau_0. Particulars: aqueous buffer: 15 mM Tris, 150 mM NaCl, 1 mM TCEP, pH 7.6, N2O-saturated; 0.1 mM; 20.0 °C; scale: us.

In the case of “H-GSTTEDKICRAVGPRQAQVSFLHGDQSENELPRLGGKEDRRVKQSRGEARESWRETGPSRASDARAAHLPTGTPLDIDTASESSQDPQDSRRSADALLRLQAMAGISEEQGSDTDTPIVYNDRNLLD-OH”, the ring closure, rate is 6.63.
In the case of “H-GSTTEDKISRAVGPRQAQVSFLHGDQCENELPRLGGKEDRRVKQSRGEARESWRETGPSRASDARAAHLPTGTPLDIDTASESSQDPQDSRRSADALLRLQAMAGISEEQGSDTDTPIVYNDRNLLD-OH” it was 3.1; in that of “H-GSTTEDKISRAVGPRQAQVSFLHGDQSENELPRLGGKEDRRVKQSRGEARESWRETGPSRASDARAAHLPTGTPLDIDTASESCQDPQDSRRSADALLRLQAMAGISEEQGSDTDTPIVYNDRNLLD-OH”, 3.21; in that of “H-GSTTEDKISRAVGPRQAQVSFLHGDQSENELPRLGGKEDRRVKQSRGEARESYRETGPSRASDARAAHLPTGTPLDIDTASESCQDPQDSRRSADALLRLQAMAGISEEQGSDTDTPIVWNDRNLLD-OH”, 7.6.
In the case of “H-GSTTEDKISRAVGPRQAQVSFLHGDQSENELPRLGGKEDRRVKQSRGEARESYRETGPSRASDARAAHLPTGTPLDIDTASESSQDPQDCRRSADALLRLQAMAGISEEQGSDTDTPIVWNDRNLLD-OH” it was 2.76.

Values taken from article PMC12501004.
